Source: patent US20070173488A1, “Pyrazolothiazole Protein Kinase Modulators” (SGX Pharmaceuticals, Inc., priority 2005, published 2007)

Assays:
[1] = target: T1, CDK4/CycD1 (Homo sapiens, UniProt P11802); experiment: 33PanQuinase Activity Assay (ProQuinase GmbH); type: biochemical
T1 construct: purchased ProQuinase GmbH, Freiburg, Germany (assay service)
Excerpt: ^33PanQuinase Activity Assay (ProQuinase GmbH) and SelectScreen™ Kinase Profiling (Invitrogen Corp.)
^33PanQuinase Activity Assay is a proprietary, radioisotopic protein kinase assay developed by ProQuinase GmbH, Freiburg, Germany. Details on assay conditions can be found on the company's website.

[2] = target: T2, AurA (Homo sapiens, UniProt O14965); experiment: AurA Luminescence-based Enzyme Assay (Kinase-Glo); type: biochemical
T2 construct: made in house; host or cells: Sf9 insect cells
T2 sequence (O14965 1-403): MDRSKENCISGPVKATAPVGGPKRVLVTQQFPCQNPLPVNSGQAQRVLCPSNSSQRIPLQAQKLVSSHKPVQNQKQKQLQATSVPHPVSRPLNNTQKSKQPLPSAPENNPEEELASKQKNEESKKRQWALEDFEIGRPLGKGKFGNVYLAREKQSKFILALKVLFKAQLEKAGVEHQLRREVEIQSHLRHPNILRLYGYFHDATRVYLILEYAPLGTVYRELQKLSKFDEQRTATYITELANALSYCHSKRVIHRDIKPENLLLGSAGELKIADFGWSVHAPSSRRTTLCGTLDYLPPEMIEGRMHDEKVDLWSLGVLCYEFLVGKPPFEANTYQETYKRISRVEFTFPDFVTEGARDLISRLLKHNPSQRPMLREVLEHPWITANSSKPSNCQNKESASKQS
Excerpt: Homogeneous luminescence-based inhibitor screening assays were developed for c-Abl, MET, AurA, and PDK1 kinases (among others). Each of these assays made use of an ATP depletion assay (Kinase-Glo™, Promega Corporation, Madison, Wis.) to quantitate kinase activity. The Kinase-Glo™ format uses a thermostable luciferase to generate luminescent signal from ATP remaining in solution following the kinase reaction. The luminescent signal is inversely correlated with the amount of kinase activity.
Dose response was analyzed using the equation: y=min+{(max−min)/(1 +10^[compound]-logIC50)}, where y is the observed initial slope, max=the slope in the absence of inhibitor, min=the slope at infinite inhibitor, and the IC50 is the [compound] that corresponds to ½ the total observed amplitude (Amplitude=max−min).
The Sf9 insect cell pellets (˜18 g) produced from 6 L of cultured cells expressing human Aurora-2 were resuspended in 50 mM Na Phosphate pH 8.0, 500 mM NaCl, 10% glycerol, 0.2% n-octyl-β-D-glucopyranoside (BOG) and 3 mM β-Mercaptoethanol (BME). One tablet of Roche Complete, EDTA-free protease inhibitor cocktail (Cat# 1873580) and 85 units Benzonase (Novagen Cat#70746-3)) were added per 1 L of original culture. Pellets were resuspended in approximately 50 ml per 1 L of original culture and were then sonicated on ice with two 30-45 sec bursts (100% duty cycle). Debris was removed by centrifugation and the supernatant was passed through a 0.8 μm syringe filter before being loaded onto a 5 ml Ni^2+ HiTrap column (Pharmacia). The column was washed with 6 column volumes of 50 mM Na Phosphate pH 8.0, 500 mM NaCl, 10% glycerol, 3 mM BME. The protein was eluted using a linear gradient of the same buffer containing 500 mM Imidazole. The eluant (24 ml) was cleaved overnight at 4° C. in a buffer containing 50 mM Na Phosphate pH 8.0, 500 mM NaCl, 10% glycerol, 3 mM BME and 10,000 units of TEV (Invitrogen Cat#10127-017). The protein was passed over a second nickel affinity column as described above; the flow-through was collected. The cleaved protein fractions were combined and concentrated using spin concentrators. Further purification was done by gel filtration chromatography on a S75 sizing column in 50 mM Na Phosphate (pH 8.0), 250mM NaCl, 1 mM EDTA, 0.1 mM AMP-PNP or ATP buffer, and 5 mM DTT. The cleanest fractions were combined and concentrated to approximately 8-11 mg/ml, and were either flash frozen in liquid nitrogen in 120 μl aliquots and stored at −80° C., or stored at 4° C.
AurA Luminescence-based Enzyme Assay
Materials: Kemptide peptide substrate=LRRASLG (Biopeptide, San Diego, Calif.), ATP (Sigma Cat#A-3377, FW=551), HEPES buffer, pH 7.5, 10% Brij 35 (Calbiochem Cat# 203728), MgCl2, Staurosporine (Streptomyces sp. Sigma Cat#85660-1MG), white Costar 384-well flat -bottom plate (VWR Cat#29444-088), Autophosphorylated AurA kinase (see below), Kinase-Glo™ (Promega Cat#V6712).
Stock Solutions: 10 mM Kemptide peptide (7.72 mg/ml in water), stored at −20° C.; 100 mM HEPES buffer +0.015% Brij 35, pH 7.5 (5 ml 1M HEPES stock +75 μL 10% Brij 35+45 ml miliQH2O); 10 mM ATP (5.51 mg/ml in dH2O) stored at −20° C. (diluted 50 μl into total of 10 ml miliQH2O daily=50 μM ATP working stock); 100 mM MgCl2; 200 μM Staurosporine, 2× Kinase-Glo™ reagent (made fresh or stored at −20° C.).
AurA Autophosphorylation Reaction: ATP and MgCl2 were added to 1-5 mg/ml AurA at final concentrations of 10 mM and 100 mM, respectively. The autophosphorylation reaction was incubated at 21° C. for 2-3 h. The reaction was stopped by the addition of EDTA to a final concentration of 50 mM, and samples were flash frozen with liquid N2 and stored at −80° C.
Standard Assay Setup for 384-well format (20 μl kinase reaction, 40 μL detection reaction): 10 mM MgCl2; 0.2mM Kemptide peptide; 1 μl test compound (in DMSO); 0.3 μg/ml Autophosphorylated AurA kinase; 10 μM ATP; 100 mM HEPES+0.015% Brij buffer. Positive controls contained DMSO with no test compound. […]

[3] = tested on: HCT116 cells; experiment: 96-well XTT cell survival assay (HCT116 cells); type: cell-based; details: Homo sapiens, HCT-116, 72 hours
Procedure: HCT116 cells were maintained in McCoy's 5a Medium supplemented with 10% fetal bovine serum (FBS) 2 mM L-Glutamine and 100 units penicillin/100 μg streptomycin, at 37° C. in 5% CO2.
Compounds were tested in the following assays in duplicate.
96-well XTT assay (HCT116 cells): Cells were grown in growth media containing various concentrations of compounds (duplicates) on a 96-well flat bottom plate for 72 hours at 37° C. in 5% CO2. The starting cell number was 5000 cells per well and volume was 120 μl. At the end of the 72-hour incubation, 40 μl of XTT labeling mixture (50:1 solution of sodium 3′-[1-(phenylaminocarbonyl)-3,4-tetrazolium]-bis (4-methoxy-6-nitro) benzene sulfonic acid hydrate and Electron-coupling reagent: PMS (N-methyl dibenzopyrazine methyl sulfate) were added to each well of the plate. After an additional 2-6 hours of incubation at 37° C., the absorbance reading at 650 nm was measured with a spectrophotometer.

T1 sequence (P11802 whole entry): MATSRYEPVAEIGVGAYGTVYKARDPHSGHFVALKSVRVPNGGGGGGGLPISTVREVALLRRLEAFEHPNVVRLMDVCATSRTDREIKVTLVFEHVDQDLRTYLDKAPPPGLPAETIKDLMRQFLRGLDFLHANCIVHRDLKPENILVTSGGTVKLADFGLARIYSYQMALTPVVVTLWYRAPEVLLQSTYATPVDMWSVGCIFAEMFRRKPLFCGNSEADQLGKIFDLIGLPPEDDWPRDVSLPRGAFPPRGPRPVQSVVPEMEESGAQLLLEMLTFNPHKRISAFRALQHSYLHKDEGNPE
T1 sequence (P24385 whole entry partner): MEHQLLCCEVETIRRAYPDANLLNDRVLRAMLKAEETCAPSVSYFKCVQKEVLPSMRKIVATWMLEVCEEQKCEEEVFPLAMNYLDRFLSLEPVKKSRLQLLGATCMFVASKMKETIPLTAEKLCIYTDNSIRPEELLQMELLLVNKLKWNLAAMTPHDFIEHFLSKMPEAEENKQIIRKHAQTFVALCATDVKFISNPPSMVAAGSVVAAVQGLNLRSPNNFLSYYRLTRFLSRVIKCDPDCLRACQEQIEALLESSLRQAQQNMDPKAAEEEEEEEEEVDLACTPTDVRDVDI

O=C(Nc1cc[nH]n1)Nc1nc2[nH]nc(-n3cncc3-c3ccccc3Cl)c2s1 [1-{3-[5-(2-Chloro-phenyl)-imidazol-1-yl]-1H-pyrazolo[3,4-d]thiazol-5-yl}-3-(1H-pyrazol-3-yl)-urea]
IC50 [1]: 100 to 1000 nM | IC50 [2]: 1000 to 10000 nM | IC50 [3]: 100 to 1000 nM

O=C(Nc1nc2[nH]nc(-n3cncc3-c3ccc4ccccc4c3)c2s1)C1CC1 [Cyclopropanecarboxylic acid [3-(5-naphthalen-2-yl-imidazol-1-yl)-1H-pyrazolo[3,4-d]thiazol-5-yl]-amide]
IC50 [2]: 1000 to 10000 nM

O=C(Nc1nc2[nH]nc(-n3cncc3-c3ccccc3)c2s1)C1CC1 [Cyclopropanecarboxylic acid [3-(5-phenyl-imidazol-1-yl)-1H-pyrazolo[3,4-d]thiazol-5-yl]-amide]
IC50 [2]: 1000 to 10000 nM | IC50 [3]: 100 to 1000 nM

O=C(Nc1nc2[nH]nc(-n3cncc3-c3ccccn3)c2s1)C1CC1 [Cyclopropanecarboxylic acid [3-(5-pyridin-2-yl-imidazol-1-yl)-1H-pyrazolo[3,4-d]thiazol-5-yl]-amide]
IC50 [2]: > 10000 nM | IC50 [3]: 100 to 1000 nM

O=C(Nc1nc2[nH]nc(-n3cncc3-c3cc(Cl)cc(Cl)c3Cl)c2s1)C1CC1 [Cyclopropanecarboxylic acid {3-[5-(2,3,5-trichloro-phenyl)-imidazol-1-yl]-1H-pyrazolo[3,4-d]thiazol-5-yl}-amide]
IC50 [1]: 1000 to 10000 nM | IC50 [2]: 100 to 1000 nM

O=C(Nc1nc2[nH]nc(-n3cncc3-c3c(Cl)ccc(Cl)c3Cl)c2s1)C1CC1 [Cyclopropanecarboxylic acid {3-[5-(2,3,6-trichloro-phenyl)-imidazol-1-yl]-1H-pyrazolo[3,4-d]thiazol-5-yl}-amide]
IC50 [2]: < 100 nM | IC50 [3]: 1000 to 10000 nM

O=C(Nc1nc2[nH]nc(-n3cncc3-c3cccc(F)c3F)c2s1)C1CC1 [Cyclopropanecarboxylic acid {3-[5-(2,3-difluoro-phenyl)-imidazol-1-yl]-1H-pyrazolo[3,4-d]thiazol-5-yl}-amide]
IC50 [1]: < 100 nM | IC50 [2]: 1000 to 10000 nM | IC50 [3]: 100 to 1000 nM

O=C(Nc1nc2[nH]nc(-n3cncc3-c3c(Cl)cccc3Cl)c2s1)C1CC1 [Cyclopropanecarboxylic acid {3-[5-(2,6-dichloro-phenyl)-imidazol-1-yl]-1H-pyrazolo[3,4-d]thiazol-5-yl}-amide]
IC50 [1]: < 100 nM | IC50 [2]: < 100 nM | IC50 [3]: 100 to 1000 nM

COc1ccc2nc(Cl)c(-c3cncn3-c3n[nH]c4nc(NC(=O)C5CC5)sc34)cc2c1 [Cyclopropanecarboxylic acid {3-[5-(2-chloro-6-methoxy-quinolin-3-yl)-imidazol-1-yl]-1H-pyrazolo[3,4-d]thiazol-5-yl}-amide]
IC50 [2]: > 10000 nM

O=C(Nc1nc2[nH]nc(-n3cncc3-c3ccccc3Cl)c2s1)C1CC1 [Cyclopropanecarboxylic acid {3-[5-(2-chloro-phenyl)-imidazol-1-yl]-1H-pyrazolo[3,4-d]thiazol-5-yl}-amide]
IC50 [1]: < 100 nM | IC50 [2]: < 100 nM | IC50 [3]: 100 to 1000 nM

NC(=O)COc1ccc(-c2cncn2-c2n[nH]c3nc(NC(=O)C4CC4)sc23)c(Cl)c1 [Cyclopropanecarboxylic acid {3-[5-(4-carbamoylmethoxy-2-chloro-phenyl)-imidazol-1-yl]-1H-pyrazolo[3,4-d]thiazol-5-yl}-amide]
IC50 [1]: < 100 nM | IC50 [2]: 100 to 1000 nM

CS(=O)(=O)c1ccc(F)cc1-c1cncn1-c1n[nH]c2nc(NC(=O)C3CC3)sc12 [Cyclopropanecarboxylic acid {3-[5-(5-fluoro-2-methanesulfonyl-phenyl)-imidazol-1-yl]-1H-pyrazolo[3,4-d]thiazol-5-yl}-amide]
IC50 [2]: 100 to 1000 nM
